Measurements as given in patent US7138361B2, “Herbicidal heterocycles” (E. I. du Pont de Nemours and Company, priority 2000, dated 2006).

Assays:
Type in all cases: in vivo
[1] = tested on: duck salad (Heteranthera limosa); test: Test B flooded paddy test; conditions: Rate 1000 g/ha, scale of 0 to 100 where 0 is no effect and 100 is complete control, visually evaluated after 13 to 15 days
Outline: (§1)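 Treatment: formulated chemical applied to flooded paddy plants at 2-leaf stage. Hold: greenhouse, 13–15 days. Scoring: visual comparison to controls, 0 (no effect) to 100 (complete control).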

rice (Oryza saliva) = test: Test B flooded paddy test; conditions: Rate 1000 g/ha, scale of 0 to 100 where 0 is no effect and 100 is complete control, visually evaluated after 13 to 15 days
Outline: as §1

[2] = tested on: barnyardgrass (Echinochloa crus-galli); test: Test B flooded paddy test; conditions: Rate 1000 g/ha, scale of 0 to 100 where 0 is no effect and 100 is complete control, visually evaluated after 13 to 15 days
Outline: as §1

[3] = tested on: smallflower flatsedge (Cyperus difformis); test: Test B flooded paddy test; conditions: Rate 1000 g/ha, scale of 0 to 100 where 0 is no effect and 100 is complete control, visually evaluated after 13 to 15 days
Outline: as §1

[4] = tested on: bermudagrass (Cynodon dactylon); test: Test C postemergence
Outline: (§2)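 Visual injury scores of 0–100, with 100 meaning complete control, were given relative to controls after 12–14 days in the greenhouse. Treatments used a surfactant-containing non-phytotoxic solvent formulation, sprayed on seeded pots preemergence or on 1–4-leaf plants of 2–18 cm postemergence.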

[5] = tested on: velvetleaf (Abutilon theophrasti); test: Test C postemergence
Outline: as §2

[6] = tested on: lambsquarters (Chenopodium album); test: Test C postemergence
Outline: as §2

[7] = tested on: chickweed (Stellaria media); test: Test C postemergence
Outline: as §2

soybean (Glycine max) = test: Test C postemergence
Outline: as §2

[8] = tested on: johnsongrass (Sorghum halepense); test: Test C postemergence
Outline: as §2

corn (Zea mays) = test: Test C postemergence
Outline: as §2

[9] = tested on: common ragweed (Ambrosia elatior); test: Test C postemergence; conditions: Rate 500 g/ha, scale 0 to 100 (0 no effect, 100 complete control)
Outline: as §2

[10] = tested on: goosegrass (Eleusine indica); test: Test C postemergence
Outline: as §2

[11] = tested on: giant foxtail (Setaria faberii); test: Test C postemergence
Outline: as §2

[12] = tested on: crabgrass (Digitaria sanguinalis); test: Test C postemergence
Outline: as §2

[13] = tested on: yellow nutsedge (Cyperus esculentus); test: Test C postemergence
Outline: as §2

kochia (Kochia scoparia) = test: Test C postemergence
Outline: as §2

[14] = tested on: pigweed (Amaranthus retroflexus); test: Test C postemergence
Outline: as §2

[15] = tested on: cocklebur (Xanthium strumarium); test: Test C postemergence
Outline: as §2

[16] = tested on: Surinam grass (Brachiaria decumbens); test: Test C postemergence
Outline: as §2

Sunflower = test: Test C preemergence; conditions: Rate 62 g/ha, scale 0 to 100
[17] = tested on: common ragweed (Ambrosia elatior); test: Test C preemergence
Outline: as §2

[18] = Rate 125 g/ha, scale 0 to 100, 0 no effect, 100 complete control
[19] = Rate 250 g/ha, scale 0 to 100 (0 no effect, 100 complete control)
[20] = Rate 500 g/ha, scale 0 to 100 (0 no effect, 100 complete control)

**Q.** What does the source list for `Cc1ccn(C2CCN(c3cccc(C(F)(F)F)c3)C2=O)n1` (stereo not shown) [Compound 16]?
**A.** Plant response rating, Ducksalad [1]: 0; Plant response rating, Rice (rice (Oryza saliva)): 0; Plant response rating, Barnyardgrass [2]: 0; Plant response rating, Flatsedge [3]: 0

**Q.** For `CCCOc1cc(N2CCC(n3ccc(C(C)(C)C)n3)C2=O)ccc1C` (stereo not shown) [Compound 107], which “Plant response rating, Bermudagrass” value ([4]; Rate 62 g/ha, scale 0 to 100) is on record?
**A.** 0

**Q.** And the “Plant response rating, Bermudagrass” value [4, 18]?
**A.** 0

**Q.** And the “Plant response rating, Bermudagrass” value [4, 19]?
**A.** 0

**Q.** What about the “Plant response rating, Bermudagrass” value [4, 20] of the same compound?
**A.** 0

**Q.** What about the “Plant response rating, Velvetleaf” value ([5]; Rate 62 g/ha, scale 0 to 100) of the same compound?
**A.** 30

**Q.** And the “Plant response rating, Velvetleaf” value [5, 19]?
**A.** 50

**Q.** What about the “Plant response rating, Velvetleaf” value [5, 20] of the same compound?
**A.** 80

**Q.** What about the “Plant response rating, Velvetleaf” value ([5]; scale 0 to 100) of the same compound?
**A.** 40

**Q.** And the “Plant response rating, Lambsquarters” value ([6]; Rate 62 g/ha, scale 0 to 100)?
**A.** 50

**Q.** And the “Plant response rating, Lambsquarters” value [6, 19]?
**A.** 100

**Q.** What about the “Plant response rating, Lambsquarters” value [6, 20] of the same compound?
**A.** 100

**Q.** And the “Plant response rating, Chickweed” value ([7]; Rate 62 g/ha, scale 0 to 100)?
**A.** 50

**Q.** And the “Plant response rating, Chickweed” value [7, 18]?
**A.** 100

**Q.** And the “Plant response rating, Chickweed” value [7, 19]?
**A.** 100

**Q.** What about the “Plant response rating, Chickweed” value [7, 20] of the same compound?
**A.** 100

**Q.** And the “Plant response rating, Soybean” value (soybean (Glycine max); Rate 62 g/ha, scale 0 to 100)?
**A.** 0

**Q.** What about the “Plant response rating, Soybean” value (soybean (Glycine max); [19]) of the same compound?
**A.** 20

**Q.** And the “Plant response rating, Soybean” value (soybean (Glycine max); [20])?
**A.** 25

**Q.** What about the “Plant response rating, Johnsongrass” value ([8]; Rate 62 g/ha, scale 0 to 100) of the same compound?
**A.** 0

**Q.** What about the “Plant response rating, Johnsongrass” value [8, 19] of the same compound?
**A.** 0

**Q.** What about the “Plant response rating, Johnsongrass” value [8, 20] of the same compound?
**A.** 0

**Q.** And the “Plant response rating, Johnsongrass” value ([8]; rate not given, scale 0 to 100)?
**A.** 0

**Q.** What about the “Plant response rating, Corn” value (corn (Zea mays); Rate 62 g/ha, scale 0 to 100) of the same compound?
**A.** 0

**Q.** And the “Plant response rating, Corn” value (corn (Zea mays); [19])?
**A.** 0

**Q.** What about the “Plant response rating, Corn” value (corn (Zea mays); [20]) of the same compound?
**A.** 0

**Q.** What about the “Plant response rating, Corn” value (corn (Zea mays); scale 0 to 100) of the same compound?
**A.** 0

**Q.** And the “Plant response rating, Ragweed, Common” value [9]?
**A.** 50

**Q.** What about the “Plant response rating, Goosegrass” value ([10]; Rate 62 g/ha, scale 0 to 100) of the same compound?
**A.** 0

**Q.** What about the “Plant response rating, Goosegrass” value [10, 19] of the same compound?
**A.** 0

**Q.** And the “Plant response rating, Goosegrass” value [10, 20]?
**A.** 0

**Q.** And the “Plant response rating, Foxtail, Giant” value ([11]; Rate 62 g/ha, scale 0 to 100)?
**A.** 0

**Q.** What about the “Plant response rating, Foxtail, Giant” value [11, 19] of the same compound?
**A.** 0

**Q.** And the “Plant response rating, Foxtail, Giant” value [11, 20]?
**A.** 0

**Q.** And the “Plant response rating, Crabgrass” value ([12]; Rate 62 g/ha, scale 0 to 100)?
**A.** 0

**Q.** And the “Plant response rating, Crabgrass” value [12, 19]?
**A.** 0

**Q.** What about the “Plant response rating, Crabgrass” value [12, 20] of the same compound?
**A.** 20

**Q.** And the “Plant response rating, Nutsedge” value ([13]; Rate 62 g/ha, scale 0 to 100)?
**A.** 0

**Q.** And the “Plant response rating, Nutsedge” value [13, 19]?
**A.** 0

**Q.** And the “Plant response rating, Nutsedge” value [13, 20]?
**A.** 0

**Q.** What about the “Plant response rating, Kochia” value (kochia (Kochia scoparia); Rate 62 g/ha, scale 0 to 100) of the same compound?
**A.** 70

**Q.** And the “Plant response rating, Kochia” value (kochia (Kochia scoparia); [19])?
**A.** 80

**Q.** What about the “Plant response rating, Kochia” value (kochia (Kochia scoparia); [20]) of the same compound?
**A.** 85

**Q.** And the “Plant response rating, Pigweed” value ([14]; Rate 62 g/ha, scale 0 to 100)?
**A.** 50

**Q.** What about the “Plant response rating, Pigweed” value [14, 19] of the same compound?
**A.** 55

**Q.** What about the “Plant response rating, Pigweed” value [14, 20] of the same compound?
**A.** 90

**Q.** What about the “Plant response rating, Cocklebur” value ([15]; Rate 62 g/ha, scale 0 to 100) of the same compound?
**A.** 0

**Q.** And the “Plant response rating, Cocklebur” value [15, 19]?
**A.** 30

**Q.** And the “Plant response rating, Cocklebur” value [15, 20]?
**A.** 80

**Q.** And the “Plant response rating, Surinam grass” value ([16]; Rate 62 g/ha, scale 0 to 100)?
**A.** 0

**Q.** What about the “Plant response rating, Surinam grass” value [16, 18] of the same compound?
**A.** 0

**Q.** What about the “Plant response rating, Surinam grass” value [16, 19] of the same compound?
**A.** 0

**Q.** What about the “Plant response rating, Surinam grass” value [16, 20] of the same compound?
**A.** 0

**Q.** And the “Plant response rating, Sunflower” value (Sunflower)?
**A.** 0

**Q.** What about the “Plant response rating, Ragweed, Common” value [17, 18] of the same compound?
**A.** 30

**Q.** And the “Plant response rating, Ragweed, Common” value ([17]; preemergence, Rate 62 g/ha, scale 0 to 100)?
**A.** 0

**Q.** And the “Plant response rating (0 to 100), Ragweed, Common” value ([17]; preemergence, Rate 500 g/ha, visual evaluation after 12 to 14 days)?
**A.** 70

**Q.** And the “Plant response rating, Ragweed, Common” value ([17]; preemergence, Rate 250 g/ha, scale 0 to 100, 0 no effect, 100 complete control)?
**A.** 60
